What was measured:
POW virus = test system: POW virus; design: species or system NIH Swiss mice; conditions: mouse, in vivo
[1] = iv via tail vein, five consecutive days, 16.7 μg/day, 10-day observation
WN-E-D3 = WN-E-D3 (West Nile virus, UniProt Q9Q6P4); assay type: binding

**Q.** Which chance for survival (POW virus) does the source give for RCCHPQCKEGKKCR (SEQ ID NO:157) [MP-100] here?
**A.** Its chance for survival is “increases their chance for survival”.

**Q.** What about the “onset of disease / illness” value (POW virus) of the same sequence?
**A.** The value was “delay in onset of disease”.

**Q.** What about the toxicity to mice [1] of the same sequence?
**A.** Its toxicity to mice is “neither of the agents is toxic”.

**Q.** With RCCVSVCKEGKKCR [MP-107] as the sequence, how does the “selected by binding (phage display)” value (WN-E-D3) read?
**A.** The value was “selected by binding to WN-E-D3”.

**Q.** For RCCREPCKEGRKCR [MP-106], which “selected by binding (phage display)” value (WN-E-D3) is on record?
**A.** The value was “selected by binding to WN-E-D3”.

**Q.** For RCCTLRCKEGKKCR [MP-108], which “selected by binding (phage display)” value (WN-E-D3) is on record?
**A.** Its value is “selected by binding to WN-E-D3”.
